According to patent US20260042731A1, “(2,4-DICHLOROPHENOXY)ACETIC ACID ANALOGS” (CORTEVA AGRISCIENCE LLC, priority 2022, published 2026):
Like-named read-outs stand apart in the source and are kept apart here.

Key:
[1] = system: Amaranthus rudis (AMATA), tall water hemp; assay: Postemergence herbicide evaluation, growth of Amaranthus rudis (AMATA); assay type: in vivo; conditions: Amaranthus tuberculatus, post-emergence, percent reduction in plant size vs untreated control, read-out: Ave. AMATA; for pest or weed control at 280 g/ha: 280 g ae/ha; for pest or weed control at 560 g/ha: 560 g ae/ha
[2] = system: Ambrosia artemisiifolia (AMBEL), common ragweed; assay: Postemergence herbicide evaluation, growth of Ambrosia artemisiifolia (AMBEL); assay type: in vivo; conditions: Ambrosia artemisiifolia, post-emergence, percent reduction in plant size vs untreated control, read-out: AVE. AMBEL; for pest or weed control at 280 g/ha: 280 g ae/ha; for pest or weed control at 560 g/ha: 560 g ae/ha
[3] = system: Abutilon theophrasti (ABUTH), velvetleaf; assay: Postemergence herbicide evaluation, growth of Abutilon theophrasti (ABUTH); assay type: in vivo; conditions: Abutilon theophrasti, post-emergence, percent reduction in plant size vs untreated control, read-out: AVE. ABUTH; for pest or weed control at 280 g/ha: 280 g ae/ha; for pest or weed control at 560 g/ha: 560 g ae/ha
[4] = system: Chenopodium album (CHEAL), common lambsquarters; assay: Postemergence herbicide evaluation, growth of Chenopodium album (CHEAL); assay type: in vivo; conditions: Chenopodium album, post-emergence, percent reduction in plant size vs untreated control, read-out: Ave. CHEAL; for pest or weed control at 280 g/ha: 280 g ae/ha; for pest or weed control at 560 g/ha: 560 g ae/ha
[5] = system: glyphosate resistant Conyza canadensis (L.) (ERICA), horseweed; assay: Postemergence herbicide evaluation, growth of Conyza canadensis (ERICA); assay type: in vivo; conditions: Erigeron canadensis, post-emergence, percent reduction in plant size vs untreated control, read-out: Ave. ERICA; for pest or weed control at 280 g/ha: 280 g ae/ha; for pest or weed control at 560 g/ha: 560 g ae/ha
[6] = Volatility of compounds measured by thermogravimetric analysis (TGA); assay type: physicochemical
[7] = system: weeds ABUTH, AMATA, AMBEL, CHEAL, ERICA; assay: Postemergence herbicide evaluation, overall average % weed control across ABUTH, AMATA, AMBEL, CHEAL and ERICA; assay type: in vivo; conditions: post-emergence, average over five weeds, read-out: Overall Ave % Weed Control; for pest or weed control at 280 g/ha: 280 g ae/ha; for pest or weed control at 560 g/ha: 560 g ae/ha

Row | Structure (SMILES) | pest or weed control at 280 g/ha ([1]; 168 h, 7 DAA) [%] | pest or weed control at 560 g/ha ([1]; 168 h, 7 DAA) [%] | pest or weed control at 280 g/ha ([1]; 336 h, 14 DAA) [%] | pest or weed control at 560 g/ha ([1]; 336 h, 14 DAA) [%] | pest or weed control at 560 g/ha ([1]; 504 h, 21 DAA) [%] | pest or weed control at 280 g/ha ([2]; 168 h, 7 DAA) [%] | pest or weed control at 560 g/ha ([2]; 168 h, 7 DAA) [%] | pest or weed control at 280 g/ha ([2]; 336 h, 14 DAA) [%] | pest or weed control at 560 g/ha ([2]; 336 h, 14 DAA) [%] | pest or weed control at 560 g/ha ([2]; 504 h, 21 DAA) [%] | pest or weed control at 280 g/ha ([3]; 168 h, 7 DAA) [%] | pest or weed control at 560 g/ha ([3]; 168 h, 7 DAA) [%] | pest or weed control at 280 g/ha ([3]; 336 h, 14 DAA) [%] | pest or weed control at 560 g/ha ([3]; 336 h, 14 DAA) [%] | pest or weed control at 560 g/ha ([3]; 504 h, 21 DAA) [%] | pest or weed control at 280 g/ha ([4]; 168 h, 7 DAA) [%] | pest or weed control at 560 g/ha ([4]; 168 h, 7 DAA) [%] | pest or weed control at 280 g/ha ([4]; 336 h, 14 DAA) [%] | pest or weed control at 560 g/ha ([4]; 336 h, 14 DAA) [%] | pest or weed control at 560 g/ha ([4]; 504 h, 21 DAA) [%] | also measured
1 | O=C(COc1ccc(Cl)cc1Cl)Nc1ccnc(Cl)c1 [Compound D13] | 72.5 | 75 | 91 | 84 | 92 | 70 | 75 | 75 | 91 | 50 | 35 | 32.5 | 40 | 35 | 37.5 | 77.5 | 75 | 95 | 98 | 92.5 | pest or weed control at 280 g/ha ([1]; 504 h, 21 DAA): 80%; pest or weed control at 280 g/ha ([2]; 504 h, 21 DAA): 94%; pest or weed control at 280 g/ha ([3]; 504 h, 21 DAA): 57.5%; pest or weed control at 280 g/ha ([4]; 504 h, 21 DAA): 90%; pest or weed control at 280 g/ha ([5]; 168 h, 7 DAA): 80%; pest or weed control at 560 g/ha ([5]; 168 h, 7 DAA): 82.5%; pest or weed control at 280 g/ha ([5]; 336 h, 14 DAA): 92.5%; pest or weed control at 560 g/ha ([5]; 336 h, 14 DAA): 91.5%; pest or weed control at 280 g/ha ([5]; 504 h, 21 DAA): 97.5%; pest or weed control at 560 g/ha ([5]; 504 h, 21 DAA): 99%; TGA Data (rate of weight loss, volatility) [6]: 0.06009 µg/min; pest or weed control at 280 g/ha ([7]; 168 h, 7 DAA): 67%; pest or weed control at 560 g/ha ([7]; 168 h, 7 DAA): 68%; pest or weed control at 280 g/ha ([7]; 336 h, 14 DAA): 78.7%; pest or weed control at 560 g/ha ([7]; 336 h, 14 DAA): 79.9%; pest or weed control at 280 g/ha ([7]; 504 h, 21 DAA): 83.8%; pest or weed control at 560 g/ha ([7]; 504 h, 21 DAA): 74.2%
2 | Cc1cc(NC(=O)COc2ccc(Cl)cc2Cl)n(C)n1 [Compound D14] | 75 | 75 | 90 | 91.5 | 92.5 | 80 | 75 | 72.5 | 97 | 100 | 37.5 | 50 | 45 | 52.5 | 65 | 72.5 | 75 | 96.5 | 90 | 100 | pest or weed control at 280 g/ha ([1]; 504 h, 21 DAA): 72.5%; pest or weed control at 280 g/ha ([2]; 504 h, 21 DAA): 100%; pest or weed control at 280 g/ha ([3]; 504 h, 21 DAA): 52.5%; pest or weed control at 280 g/ha ([4]; 504 h, 21 DAA): 95%; pest or weed control at 280 g/ha ([5]; 168 h, 7 DAA): 82.5%; pest or weed control at 560 g/ha ([5]; 168 h, 7 DAA): 72.5%; pest or weed control at 280 g/ha ([5]; 336 h, 14 DAA): 94%; pest or weed control at 560 g/ha ([5]; 336 h, 14 DAA): 94%; pest or weed control at 280 g/ha ([5]; 504 h, 21 DAA): 98.5%; pest or weed control at 560 g/ha ([5]; 504 h, 21 DAA): 100%; TGA Data (rate of weight loss, volatility) [6]: 0.01234 µg/min; pest or weed control at 280 g/ha ([7]; 168 h, 7 DAA): 69.5%; pest or weed control at 560 g/ha ([7]; 168 h, 7 DAA): 69.5%; pest or weed control at 280 g/ha ([7]; 336 h, 14 DAA): 79.6%; pest or weed control at 560 g/ha ([7]; 336 h, 14 DAA): 85%; pest or weed control at 280 g/ha ([7]; 504 h, 21 DAA): 83.7%; pest or weed control at 560 g/ha ([7]; 504 h, 21 DAA): 91.5%
3 | O=C(COc1ccc(Cl)cc1Cl)NOC1CCCCO1 (stereo not drawn) [Compound D15] | 75 | 85 | 85 | 95 | 97.5 | 85 | 90 | 82.5 | 92.5 | 100 | 70 | 80 | 87.5 | 94.5 | 99.5 | 77.5 | 82.5 | 94 | 97.5 | 97.5 | pest or weed control at 286 g/ha ([1]; 504 h, 286 g ae/ha, 21 DAA): 72.5%; pest or weed control at 286 g/ha ([2]; 504 h, 286 g ae/ha, 21 DAA): 100%; pest or weed control at 286 g/ha ([3]; 504 h, 286 g ae/ha, 21 DAA): 99.5%; pest or weed control at 286 g/ha ([4]; 504 h, 286 g ae/ha, 21 DAA): 85%; pest or weed control at 280 g/ha ([5]; 168 h, 7 DAA): 72.5%; pest or weed control at 560 g/ha ([5]; 168 h, 7 DAA): 80%; pest or weed control at 280 g/ha ([5]; 336 h, 14 DAA): 97%; pest or weed control at 560 g/ha ([5]; 336 h, 14 DAA): 95%; pest or weed control at 286 g/ha ([5]; 504 h, 286 g ae/ha, 21 DAA): 99.5%; pest or weed control at 560 g/ha ([5]; 504 h, 21 DAA): 100%; TGA Data (rate of weight loss, volatility) ([6]; value marked *: decomposition of the material was observed): 6.9* μg/min; pest or weed control at 280 g/ha ([7]; 168 h, 7 DAA): 76%; pest or weed control at 560 g/ha ([7]; 168 h, 7 DAA): 83.5%; pest or weed control at 280 g/ha ([7]; 336 h, 14 DAA): 89.2%; pest or weed control at 560 g/ha ([7]; 336 h, 14 DAA): 94.9%; pest or weed control at 286 g/ha ([7]; 504 h, 286 g ae/ha, 21 DAA): 91.3%; pest or weed control at 560 g/ha ([7]; 504 h, 21 DAA): 98.9%
